Measured values published in US8835503B2, “Pharmaceutical composition containing GLUR2-lacking AMPAR antagonist for preventing or treating psychiatric illnesses” (SNU R&DB Foundation, priority 2009, dated 2014).

Test system: fear memory renewal
Test: Blocking of fear memory renewal by NASPM administered into the amygdala (freezing response)
Type: in vivo, rat
Conditions: for fear responses (freezing) in memory renewal test: 15 minutes before measuring fear memory, vs control group
Protocol: For fear memory learning, the rats were exposed to sound stimuli of a single tone (2.8 kHz, 85 dB) for 30 seconds, and subjected to an electric foot shock (1.0 mA) for 1 second at the end of said 30-second period. The sound stimuli and the electric foot shock were repeated 3 times at 100 second intervals. 1 minute later after the last electric foot shock, the rats were returned to their home cages. On day 2, fear memory learning was performed in the same way.
From day 3, memory extinction was performed in a context different from that of the fear memory learning On day 4, the rats were exposed to only sound stimuli 20 times at 100 second intervals without an electric foot shock. On days 5 and 6, the sound stimuli were repeated 15 times at 100 second intervals.
On day 7, memory renewal test was performed. The rats experienced memory extinction were placed in the place of the fear memory learning for 10 minutes, and then, memory renewal was induced by exposing the rats to sound stimuli for 30 seconds.
The experiment was performed using the rats which experienced fear memory learning, memory extinction and memory renewal in accordance with the method described in Example 1-1. White rats, 8-9 weeks old (Sprague-Dawley Rat, Male; Samtako, Korea), were used.
The rats were anesthetized by intraperitoneal injection of pentobarbital sodium (50 mg/kg; Entobal, Hanlim Pharma, Co., Ltd., Korea). After fully anesthetized, the rats were mounted on a stereotaxic apparatus (David Kopf Instruments, Tujunga, Calif., USA), and then, stainless steel cannulas of 26 gauge (Model C315G, Plastic Products, Roanoke, Va., USA) were implanted bilaterally into the amygdala (AP; […], ML; +/−5.15, DV; −7.0 mm) by operation. A 32 gauge dummy cannula was inserted into each cannula to prevent clogging. After a recovery period of at least 1 week, the rats were subjected to fear memory learning, memory extinction and memory renewal tests. […]
Conditioned freezing was defined as immobility except for respiratory movements, and was quantified by trained observers that were blind to the experimental groups.

N-naphthylspermine [NASPM]
fear responses (freezing) in memory renewal test (10 μg NASPM into the amygdala): insignificant effect
fear responses (freezing) in memory renewal test (40 μg NASPM into the amygdala): remarkably less fear responses
blocking of fear memory renewal (administered in the amygdala, 10 μg and 40 μg): blocks the fear memory renewal in a concentration-dependent manner
